# Reference: the supplement of paper PMC10733146
# Assays:
# Experiment in all cases: viability relative to DMSO control (fraction); higher = less drug effect (more viable cells)
# Conditions in all cases: 48 h
# [1] = compound: O=C(/C=C\n1cnc(-c2cc(C(F)(F)F)cc(C(F)(F)F)c2)n1)NNc1cnccn1 [Selinexor]
# In short: (§1)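 Compounds were pre-plated at five concentrations, one well each, in 384-well plates, and primary mononuclear tumour cells were plated on them at 4 × 10^4 cells per well. The cells, fresh or cryopreserved, had been Ficoll-isolated from blood or bone marrow or taken from processed lymph node. After 48 h at 37 °C and 5% CO2 in RPMI-1640 with penicillin/streptomycin, L-glutamine and human serum, viability was read as CellTiter-Glo luminescence relative to the median of 16 inner DMSO wells.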
# [2] = compound: CCc1ccc(/C=C2/SC(=S)NC2=O)cc1
# In short: as §1
# [3] = compound: CC1(C)CCC(c2ccc(Cl)cc2)=C(CN2CCN(c3ccc(C(=O)NS(=O)(=O)c4ccc(N[C@H](CCN5CCOCC5)CSc5ccccc5)c(S(=O)(=O)C(F)(F)F)c4)cc3)CC2)C1 [Navitoclax]
# In short: as §1
# [4] = compound: CC(=O)c1c(C)c2cnc(Nc3ccc(N4CCNCC4)cn3)nc2n(C2CCCC2)c1=O [Palbociclib]
# In short: as §1
# [5] = compound: C[C@H](Nc1ncnc2nc[nH]c12)c1cc2cccc(Cl)c2c(=O)n1-c1ccccc1 [Duvelisib]
# In short: as §1
# [6] = compound: COc1cc([C@@H]2c3cc4c(cc3[C@@H](O[C@@H]3O[C@@H]5CO[C@@H](C)O[C@H]5[C@H](O)[C@H]3O)[C@H]3COC(=O)[C@H]23)OCO4)cc(OC)c1O [Etoposide]
# In short: as §1
# [7] = compound: CO[C@H]1C[C@@H]2CC[C@@H](C)[C@@](O)(O2)C(=O)C(=O)N2CCCC[C@H]2C(=O)O[C@H]([C@H](C)C[C@@H]2CC[C@@H](OCCO)[C@H](OC)C2)CC(=O)[C@H](C)/C=C(\C)[C@@H](O)[C@@H](OC)C(=O)[C@H](C)C[C@H](C)/C=C/C=C/C=C/1C [Everolimus]
# In short: as §1
# [8] = compound: O=C(Nc1ccc2[nH]nc(-c3ccncc3)c2c1)[C@@H]1CCN(CC(=O)N2CCN(c3ccc(-c4ncccn4)cc3)CC2)C1
# In short: as §1
# [9] = compound: c1cn2cc(-c3ccc4cn[nH]c4c3)nc(Nc3ccc(N4CCOCC4)cc3)c2n1 [Entospletinib]
# In short: as §1
test system,measurement,setting,value
primary DLBCL patient cells (S049),viability,[1]; 0.008 µM,0.54
same,viability,[1]; 0.04 µM,0.486
same,viability,[1]; 0.2 µM,0.499
same,viability,[1]; 1 µM,0.669
same,viability,[1]; 5 µM,0.586
same,viability,[2]; 0.024 µM,0.744
same,viability,[2]; 0.12 µM,0.798
same,viability,[2]; 0.6 µM,0.902
same,viability,[2]; 3 µM,0.873
same,viability,[2]; 15 µM,0.737
same,viability,[3]; 0.0032 µM,1
same,viability,[3]; 0.016 µM,0.834
same,viability,[3]; 0.08 µM,0.375
same,viability,[3]; 0.4 µM,0.0676
same,viability,[3]; 2 µM,0.0439
same,viability,[4]; 0.024 µM,0.999
same,viability,[4]; 0.12 µM,0.968
same,viability,[4]; 0.6 µM,0.88
same,viability,[4]; 3 µM,0.496
same,viability,[4]; 15 µM,0.0932
same,viability,[5]; 0.0016 µM,0.988
same,viability,[5]; 0.008 µM,0.969
same,viability,[5]; 0.04 µM,0.92
same,viability,[5]; 0.2 µM,0.986
same,viability,[5]; 1 µM,0.81
same,viability,[6]; 0.032 µM,0.907
same,viability,[6]; 0.16 µM,1.01
same,viability,[6]; 0.8 µM,0.962
same,viability,[6]; 4 µM,0.882
same,viability,[6]; 20 µM,0.548
same,viability,[7]; 0.0032 µM,1.1
same,viability,[7]; 0.016 µM,1.04
same,viability,[7]; 0.08 µM,1.09
same,viability,[7]; 0.4 µM,1.05
same,viability,[7]; 2 µM,1.02
same,viability,[8]; 0.008 µM,0.611
same,viability,[8]; 0.04 µM,0.53
same,viability,[8]; 0.2 µM,0.396
same,viability,[8]; 1 µM,0.304
same,viability,[8]; 5 µM,0.245
same,viability,[9]; 0.024 µM,0.951
same,viability,[9]; 0.12 µM,0.834
same,viability,[9]; 0.6 µM,0.804
same,viability,[9]; 3 µM,0.886
same,viability,[9]; 15 µM,0.892
primary DLBCL patient cells (S076),viability,[1]; 0.008 µM,0.97
same,viability,[1]; 0.04 µM,0.943
same,viability,[1]; 0.2 µM,0.819
same,viability,[1]; 1 µM,0.563
same,viability,[1]; 5 µM,0.331
same,viability,[2]; 0.024 µM,0.949
same,viability,[2]; 0.12 µM,0.942
same,viability,[2]; 0.6 µM,1.07
same,viability,[2]; 3 µM,0.995
same,viability,[2]; 15 µM,0.942
same,viability,[3]; 0.0032 µM,1.07
same,viability,[3]; 0.016 µM,0.95
same,viability,[3]; 0.08 µM,0.689
same,viability,[3]; 0.4 µM,0.279
same,viability,[3]; 2 µM,0.15
same,viability,[4]; 0.024 µM,1.14
same,viability,[4]; 0.12 µM,1.14
same,viability,[4]; 0.6 µM,0.991
same,viability,[4]; 3 µM,0.647
same,viability,[4]; 15 µM,0.221
same,viability,[5]; 0.0016 µM,0.884
same,viability,[5]; 0.008 µM,0.839
same,viability,[5]; 0.04 µM,0.732
same,viability,[5]; 0.2 µM,0.718
same,viability,[5]; 1 µM,0.611
same,viability,[6]; 0.032 µM,0.882
same,viability,[6]; 0.16 µM,1.05
same,viability,[6]; 0.8 µM,0.81
same,viability,[6]; 4 µM,0.901
same,viability,[6]; 20 µM,0.551
same,viability,[7]; 0.0032 µM,0.937
same,viability,[7]; 0.016 µM,0.888
same,viability,[7]; 0.08 µM,0.891
same,viability,[7]; 0.4 µM,0.887
same,viability,[7]; 2 µM,0.855
same,viability,[8]; 0.008 µM,0.991
same,viability,[8]; 0.04 µM,0.912
same,viability,[8]; 0.2 µM,0.796
same,viability,[8]; 1 µM,0.694
same,viability,[8]; 5 µM,0.622
same,viability,[9]; 0.024 µM,1.05
same,viability,[9]; 0.12 µM,0.954
same,viability,[9]; 0.6 µM,0.927
same,viability,[9]; 3 µM,0.979
same,viability,[9]; 15 µM,1.05
primary T-NHL patient cells (S058),viability,[1]; 0.008 µM,0.967
same,viability,[1]; 0.04 µM,0.877
same,viability,[1]; 0.2 µM,0.806
same,viability,[1]; 1 µM,0.709
same,viability,[1]; 5 µM,0.469
same,viability,[2]; 0.024 µM,0.89
same,viability,[2]; 0.12 µM,0.978
same,viability,[2]; 0.6 µM,1.14
same,viability,[2]; 3 µM,0.927
same,viability,[2]; 15 µM,0.909
same,viability,[3]; 0.0032 µM,1.19
same,viability,[3]; 0.016 µM,1.08
same,viability,[3]; 0.08 µM,1.01
same,viability,[3]; 0.4 µM,0.568
same,viability,[3]; 2 µM,0.325
same,viability,[4]; 0.024 µM,1.15
same,viability,[4]; 0.12 µM,1.32
same,viability,[4]; 0.6 µM,1.08
same,viability,[4]; 3 µM,0.899
same,viability,[4]; 15 µM,0.538
same,viability,[5]; 0.0016 µM,1.1
same,viability,[5]; 0.008 µM,1.04
same,viability,[5]; 0.04 µM,0.923
same,viability,[5]; 0.2 µM,1.03
same,viability,[5]; 1 µM,0.91
same,viability,[6]; 0.032 µM,0.838
same,viability,[6]; 0.16 µM,1.16
same,viability,[6]; 0.8 µM,0.739
same,viability,[6]; 4 µM,0.654
same,viability,[6]; 20 µM,0.268
same,viability,[7]; 0.0032 µM,0.922
same,viability,[7]; 0.016 µM,1.07
same,viability,[7]; 0.08 µM,0.954
same,viability,[7]; 0.4 µM,1.03
same,viability,[7]; 2 µM,0.944
same,viability,[8]; 0.008 µM,1.04
same,viability,[8]; 0.04 µM,1.1
same,viability,[8]; 0.2 µM,1.01
same,viability,[8]; 1 µM,0.989
same,viability,[8]; 5 µM,0.908
same,viability,[9]; 0.024 µM,1.03
same,viability,[9]; 0.12 µM,1.09
same,viability,[9]; 0.6 µM,0.875
same,viability,[9]; 3 µM,1.04
same,viability,[9]; 15 µM,1.06
